From ChEMBL document CHEMBL1159025, “A Novel Hydrolyzable Tannin and Related Compounds Isolated from the Leaf Surface of Chrysolepis sempervirens” (1992) come the findings set out here.

The source made the active and inactive calls. No cut-off for these calls is given here.

One experiment relates to Candida albicans. The experiment is described as follows: Antimicrobial activity against Candida albicans ATCC 18804 at 1000 ug/ml by macro-dilution broth culture method. It is filed as functional, organism-based.
For another experiment, the system named is HeLa. As to the kind of experiment: Cytotoxicity against human HeLa cells at 100 ug/ml. The class given is functional.
Another experiment concerns Staphylococcus aureus. The experiment is described as follows: Antimicrobial activity against Staphylococcus aureus ATCC 6538 at 1000 ug/ml by macro-dilution broth culture method. The class given is functional, organism-based.
The next experiment has as its system Pseudomonas aeruginosa. The experiment is described as follows: Antimicrobial activity against Pseudomonas aeruginosa ATCC 25619 at 1000 ug/ml by macro-dilution broth culture method. It is filed as functional, organism-based.

As for `O=C1OC[C@H]2OC(=O)c3cc(O)c(O)c(O)c3-c3c(O)c(O)c(O)c4c3C(=O)O[C@H]([C@H]3OC(=O)c5c-4c(O)c(O)c(O)c5[C@H]3O)[C@@H]2OC(=O)c2cc(O)c(O)c(O)c2-c2c1cc(O)c(O)c2O` [CASTALAGIN], the result in the experiment on Candida albicans, in the experiment with Staphylococcus aureus and in the experiment on Pseudomonas aeruginosa was inactive. The Activity with HeLa amounted to 70%.

`O=C1OC[C@H]2OC(=O)c3cc(O)c(O)c(O)c3-c3c(O)c(O)c(O)c4c3C(=O)O[C@H]([C@@H](O)[C@@H](O)c3c(O)c(O)c(O)c-4c3C(=O)O)[C@@H]2OC(=O)c2cc(O)c(O)c(O)c2-c2c1cc(O)c(O)c2O` [CHINQUAPINIC ACID]: the outcome in the experiment with Candida albicans, with Staphylococcus aureus and in the experiment on Pseudomonas aeruginosa was inactive. Also, the Activity in the experiment on HeLa came out at 70%.

Regarding `O=C1OCC2OC(=O)c3cc(O)c(O)c(O)c3-c3c(O)c(O)c(O)c4c3C(=O)OC(C2OC(=O)c2cc(O)c(O)c(O)c2-c2c1cc(O)c(O)c2O)C1OC(=O)c2c-4c(O)c(O)c(O)c2C1O` (configuration not stated) [VESCALAGIN], the outcome with Candida albicans, in the experiment on Staphylococcus aureus and in the experiment with Pseudomonas aeruginosa was inactive. In the experiment with HeLa, this compound registered an Activity of 70%.
